Data: BindingDB's records for doi:10.1016/S0960-894X(00)80068-2 (1994)

How the values were obtained:
[1] = biological target: Sigma intracellular receptor 2 (Cavia porcellus); test: Binding affinity for Sigma opioid receptor type 2 in guinea pig brain homogenate with 4 nM [3H]-(+)-DTG
[2] = Binding affinity for Sigma opioid receptor type 1 in guinea pig brain homogenate with 0.5 nM [3H](+)-PENT

| Structure (SMILES) | Ki [1] [nM] | Ki [2] [nM] |
| --- | --- | --- |
| O=C1NC(c2ccccc2)(c2ccccc2)C(=O)N1CCCCN1CCN(c2ccccc2)CC1 [5,5-Diphenyl-3-[4-(4-phenyl-piperazin-1-yl)-butyl]-imidazolidine-2,4-dione] | 49 | 328 |
| O=C1NC(c2ccccc2)(c2ccccc2)C(=O)N1CCN1CCC(c2ccccc2)CC1 [5,5-Diphenyl-3-[2-(4-phenyl-piperidin-1-yl)-ethyl]-imidazolidine-2,4-dione] | 43 | 17 |
| O=C1NC(c2ccccc2)(c2ccccc2)C(=O)N1CCCN1CCC(c2ccccc2)CC1 [5,5-Diphenyl-3-[3-(4-phenyl-piperidin-1-yl)-propyl]-imidazolidine-2,4-dione] | 25 | 22 |
| O=C1NC(c2ccccc2)(c2ccccc2)C(=O)N1CCCCCN1CCN(c2ccccc2)CC1 [5,5-Diphenyl-3-[5-(4-phenyl-piperazin-1-yl)-pentyl]-imidazolidine-2,4-dione] | 19 | 19 |
